{"source": "patent US11512128B2", "about": "“VEGF/DLL4 binding agents and uses thereof” (MEREO BIOPHARMA 5, INC., priority 2011, dated 2022)", "molecules": {"B1": {"name": "219R45-MB-21R83: anti-VEGF/anti-DLL4 monovalent/bispecific antibody, heavy chains SEQ ID NO:7 and 62, light chains SEQ ID NO:8 (antibody)", "heavy 1": "QVQLVQSGAEVKKPGASVKVSCKASGYTFTNYWMHWVRQAPGQGLEWMGDINPSNGRTSYKEKFKRRVTLSVDKSSSTAYMELSSLRSEDTAVYFCTIHYDDKYYPLMDYWGQGTLVTVSSASTKGPSVFPLAPCSRSTSESTAALGCLVKDYFPEPVTVSWNSGALTSGVHTFPAVLQSSGLYSLSSVVTVPSSNFGTQTYTCNVDHKPSNTKVDKTVERKCCVECPPCPAPPVAGPSVFLFPPKPKDTLMISRTPEVTCVVVDVSHEDPEVQFNWYVDGVEVHNAKTKPREEQFNSTFRVVSVLTVVHQDWLNGKEYKCKVSNKGLPAPIEKTISKTKGQPREPQVYTLPPSREKMTKNQVSLTCLVKGFYPSDIAVEWESNGQPENNYKTTPPMLKSDGSFFLYSKLTVDKSRWQQGNVFSCSVMHEALHNHYTQKSLSLSPGK", "heavy 2": "QVQLVQSGAEVKKPGASVKISCKASGYSFTAYYIHWVKQAPGQGLEWIGYISNYNRATNYNQKFKGRVTFTTDTSTSTAYMELRSLRSDDTAVYYCARDYDYDVGMDYWGQGTLVTVSSASTKGPSVFPLAPCSRSTSESTAALGCLVKDYFPEPVTVSWNSGALTSGVHTFPAVLQSSGLYSLSSVVTVPSSNFGTQTYTCNVDHKPSNTKVDKTVERKCCVECPPCPAPPVAGPSVFLFPPKPKDTLMISRTPEVTCVVVDVSHEDPEVQFNWYVDGVEVHNAKTKPREEQFNSTFRVVSVLTVVHQDWLNGKEYKCKVSNKGLPAPIEKTISKTKGQPREPQVYTLPPSREEMTKNQVSLTCLVEGFYPSDIAVEWESNGQPENNYKTTPPMLDSDGSFFLYSELTVDKSRWQQGNVFSCSVMHEALHNHYTQKSLSLSPGK", "light": "DIVMTQSPDSLAVSLGERATISCRASESVDNYGISFMKWFQQKPGQPPKLLIYAASNQGSGVPDRFSGSGSGTDFTLTISSLQAEDVAVYYCQQSKEVPWTFGGGTKVEIKRTVAAPSVIFPPSDEQLKSGTASVVCLLNNFYPREAKVQWKVDNALQSGNSQESVTEQDSKDSTYSLSSTLTLSKADYEKHKVYACEVTHQGLSSPVTKSFNRGEC", "modifications": "21R79 Heavy chain without predicted signal sequence; 21R83 Heavy chain without signal sequence; Light chain without predicted signal sequence"}}, "key": {"[1]": {"system": "OMP-PN8 pancreatic tumor cells", "experiment": "Tumorigenicity of OMP-PN8 pancreatic tumor cells after treatment (serial transplantation)", "format": "in vivo, NOD/SCID mice", "conditions": "90 cells from treated tumors transplanted, day 55, no treatment; 21M18, bevacizumab 15 mg/kg, bispecifics 30 mg/kg, gemcitabine 70 mg/kg, four weeks", "method": "FIG. 6. Tumorigenicity of pancreatic tumor cells after treatment with anti-VEGF/anti-DLL4 bispecific antibodies. OMP-PN8 tumor cells from mice treated with control antibody, anti-hDLL4 antibody 21M18, anti-VEGF antibody bevacizumab, or anti-VEGF/anti-DLL4 bispecific antibodies 219R45-MB-21M18 or 219R45-MB-21R79 with or without gemcitabine were processed to single cell suspensions, and serially transplanted into mice. 90 cells from each treatment group were injected subcutaneously into NOD/SCID mice. Tumors were allowed to grow with no treatment. Data is shown as tumor volume (mm^3) on day 55. Tumor frequency is shown as number of tumors over total number of mice injected in each group.\nMice bearing OMP-PN8 pancreatic tumors were treated with control antibody (15 mg/kg), anti-hDLL4 antibody 21M18 (15 mg/kg), anti-VEGF antibody bevacizumab (15 mg/kg), or anti-VEGF/anti-DLL4 bispecific antibodies 219R45-MB-21M18 or 219R45-MB-21R79 (30 mg/kg) with or without gemcitabine (70 mg/kg). Following four weeks of treatment, tumors were harvested, processed to single cell suspensions and the human tumor cells were purified by immunomagnetic depletion of murine cells. 90 human tumor cells from each treatment group were transferred to a new cohort of mice (n=10 mice/group). Tumors were allowed to grow for 55 days without any treatment and tumor volumes were measured with electronic calipers."}, "OMP-C8 colon tumor cells": {"system": "OMP-C8 colon tumor cells", "experiment": "Tumor growth in human skin graft model", "format": "in vivo, NOD-SCID mice", "conditions": "25 mg/kg intraperitoneally once a week", "method": "FIG. 5. Inhibition of colon tumor growth in vivo by an anti-VEGF/anti-DLL4 bispecific antibody. OMP-C8 colon tumor cells were injected subcutaneously into a human skin graft in NOD/SCID mice. Mice were treated with control antibody (-▪-), anti-hDLL4 antibody 21M18 (-▴-), anti-VEGF antibody bevacizumab (-∘-), or anti-VEGF/anti-DLL4 bispecific antibody 219R45-MB-21M18 (-▾-). Data is shown as tumor volume (photons/sec) over days post-treatment. Antibodies were administered intraperitoneally at a dose of 25 mg/kg once a week.\nA human skin graft model has been reported which comprises a human skin graft and human tumor cells. A human skin graft is established and then human tumor cells are implanted into the skin graft, allowing the tumor cells to grow in an environment with human stroma and vasculature (Tahtis et al., 2003, Mol. Cancer Ther. 2:[…]). Human skin samples were obtained from neonatal foreskin tissue and grafted onto the lateral flank of NOD-SCID mice. After establishment of the skin graft, luciferase-labeled OMP-C8 colon tumor cells (20,000 cells) were injected intradermally into the human skin. Tumor growth was monitored by bioluminescence imaging using an IVIS imaging system (Caliper Life Sciences, Mountain View, Calif.). Tumors were allowed to grow until they reached 1.2×10^6 photons per second. Tumor-bearing mice (n=6 mice/group) were randomized and treated with control Ab, anti-hDLL4 antibody 21M18, anti-VEGF antibody bevacizumab, or anti-VEGF/anti-DLL4 bispecific antibody 219R45-MB-21M18. Animals were treated once a week and antibodies were administered intraperitoneally at a dose of 25 mg/kg. Tumor growth was monitored by bioluminescence imaging on the indicated days."}, "OMP-C8 colon tumor [2]": {"system": "OMP-C8 colon tumor", "experiment": "Tumorigenicity of OMP-C8 colon tumors after treatment (serial transplantation)", "format": "in vivo, NOD/SCID mice", "conditions": "150 cells from treated tumors transplanted, day 68; without irinotecan combination", "method": "FIG. 10. Tumorigenicity of […] colon tumor cells after treatment with anti-VEGF/anti-DLL4 bispecific antibodies. Tumors from mice treated with control antibody, anti-hDLL4 antibody 21M18, anti-VEGF antibody bevacizumab, a combination of 21M18 and bevacizumab, or anti-VEGF/anti-DLL4 bispecific antibodies 219R45-MB-21M18 or 219R45-MB-21R79 with or without irinotecan were processed to single cell suspensions, and serially transplanted into mice. 150 cells from each treatment group were injected subcutaneously into NOD/SCID mice. Tumors were allowed to grow with no treatment. Data are shown as tumor volume (mm^3) on day 68.\nSingle cell suspensions of OMP-C8 colon tumor xenografts (20,000 cells) were injected subcutaneously into the flanks of 6-8 week old NOD/SCID mice. Tumors were allowed to grow for 33 days until they reached an average volume of 300 mm^3. The mice were randomized (n=5 per group) and treated with anti-DLL4 antibody 21M18, anti-VEGF antibody bevacizumab, a combination of antibodies 21M18 and bevacizumab, anti-VEGF/anti-DLL4 bispecific antibody 219R45-MB-21M18, anti-VEGF/anti-DLL4 bispecific antibody 219R45-MB-21R79, or control antibody, either in combination with irinotecan or without irinotecan. Antibodies and irinotecan were dosed weekly by injection into the intraperitoneal cavity. Antibodies 21M18 and bevacizumab were dosed at 7.5 mg/kg, bispecific antibodies 219R45-MB-21M18 and 219R45-MB-21R79 were dosed at 15 mg/kg, and irinotecan was dosed at 45 mg/kg. Tumors were harvested after 4 weeks, processed into single cell suspensions, and the human tumor cells were isolated. 150 tumor cells from each experimental group were injected subcutaneously into a new cohort of mice (n=10 per group) and tumors were allowed to grow without treatment. Tumor growth was monitored and tumor volumes were measured with electronic calipers."}, "OMP-C8 colon tumor [3]": {"system": "OMP-C8 colon tumor", "experiment": "OMP-C8 colon tumor growth in vivo", "set-up": "species or system NOD/SCID mice", "method": "FIGS. 11A and 11B. Inhibition of colon tumor growth in vivo by anti-VEGF/anti-DLL4 bispecific antibodies. OMP-C8 colon tumor cells were injected subcutaneously into NOD/SCID mice. Mice were treated with control antibody (-▪-), anti-VEGF antibody bevacizumab (-▴-), or anti-VEGF/anti-DLL4 bispecific antibodies 219R45-MB-21M18 (-⋄-), 219R45-MB-21R75 (-●-), 219R45-MB-21R79 (-∘-), or 219R45-MB-21R83 (-▾-). Mice were treated with antibodies as single agents (FIG. 11A) or in combination with irinotecan (FIG. 11B). Antibodies were administered intraperitoneally at a dose of 15 mg/kg once a week and irinotecan at a dose of 7.5 mg/kg one a week. Data are shown as tumor volume (mm^3) over days post-treatment.\nSingle cell suspensions of OMP-C8 colon tumor xenografts (50,000 cells) were injected subcutaneously into the flanks of 6-8 week old NOD/SCID mice. Tumors were allowed to grow for 21 days until they reached an average volume of 80 mm^3. The mice were randomized (n=8 per group) and treated with anti-DLL4 antibody 21M18, anti-VEGF antibody bevacizumab, anti-VEGF/anti-DLL4 bispecific antibodies 219R45-MB-21M18, 219R45-MB-21R75, 219R45-MB-21R79, 219R45-MB-21R83, or control antibody, either alone or in combination with irinotecan. Antibodies and irinotecan were dosed weekly by injection into the intraperitoneal cavity. Bevacizumab and bispecific antibodies 219R45-MB-21M18, 219R45-MB-21R75, 219R45-MB-21R79, and 219R45-MB-21R83 were dosed at 15 mg/kg, and irinotecan was dosed at 7.5 mg/kg. Tumor growth was monitored and tumor volumes were measured with electronic calipers at the indicated time points. Data are expressed as mean±S.E.M.\nFollowing the treatment phase, tumor sections were prepared and analyzed by hematoxylin and eosin (H&E) staining. […] This is characteristic of highly necrotic tumor tissue."}}}
{"molecule": "bevacizumab [reference compound]", "values": [{"measurement": "tumor growth frequency (mice with tumors)", "setting": "[1]", "value": "10 out of 10"}, {"measurement": "inhibition of tumor growth (bioluminescence)", "setting": "OMP-C8 colon tumor cells", "value": "inhibited tumor growth"}, {"measurement": "tumor growth frequency, single agents", "setting": "OMP-C8 colon tumor [2]", "value": "had no effect on tumor growth frequency"}]}
{"molecule": "B1", "values": [{"measurement": "inhibition of tumor growth in combination with irinotecan", "setting": "OMP-C8 colon tumor [3]; antibody 15 mg/kg, irinotecan 7.5 mg/kg weekly ip", "value": "greatest inhibition of tumor growth"}, {"measurement": "H&E staining of tumor sections after treatment", "setting": "OMP-C8 colon tumor [3]; in combination with irinotecan", "value": "dark pink staining regions providing evidence of extensive calcification"}]}
